Data from patent publication US20110086759A1, “CHEMICAL COMPOUNDS” (SYNGENTA CROP PROTECTION, INC., priority 2007, published 2011).

Key:
Assay type in all cases: in vivo
[1] = test system: Alopecurus myosuroides (ALOMY); assay: Pre-emergence biological efficacy, glasshouse pot test; conditions: 312 h, pre-emergence, rate 1,000 g/ha, evaluated after 13 days (100=total damage to plant; 0=no damage), read-out: Percentage damage caused to weed species, ALOMY
Method in brief: (§1)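 Compound was applied as a spray one day after sowing, at a final dose of 1000 or 250 g/ha. Plants grew under 14 h light, 24/16 °C and 65% humidity, and injury was assessed on day 13 on a 0–100 scale.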

[2] = test system: Amaranthus retoflexus (AMARE); assay: as above; conditions: Amaranthus retroflexus, 312 h; pre-emergence, rate 1,000 g/ha, evaluated after 13 days (100=total damage to plant; 0=no damage); read-out: Percentage damage caused to weed species, AMARE
Method in brief: as §1

[3] = test system: Solanum nigrum (SOLNI); assay: as above; conditions: 312 h, pre-emergence, rate 1,000 g/ha, evaluated after 13 days (100=total damage to plant; 0=no damage), read-out: Percentage damage caused to weed species, SOLNI
Method in brief: as §1

[4] = test system: Echinochloa crus-galli (ECHCG); assay: as above; conditions: 312 h, pre-emergence, rate 1,000 g/ha, evaluated after 13 days (100=total damage to plant; 0=no damage), read-out: Percentage damage caused to weed species, ECHCG
Method in brief: as §1

[5] = test system: Setaria faberi (SETFA); assay: as above; conditions: 312 h, pre-emergence, rate 1,000 g/ha, evaluated after 13 days (100=total damage to plant; 0=no damage), read-out: Percentage damage caused to weed species, SETFA
Method in brief: as §1

[6] = test system: Ipomea hederaceae (IPOHE); assay: as above; conditions: Ipomoea hederacea, 312 h; pre-emergence, rate 1,000 g/ha, evaluated after 13 days (100=total damage to plant; 0=no damage); read-out: Percentage damage caused to weed species, IPOHE
Method in brief: as §1

[7] = test system: Alopecurus myosuroides (ALOMY); assay: Post-emergence biological efficacy, glasshouse pot test; conditions: 312 h, Rate 1,000 g/ha, post-emergence spray, evaluated after 13 days (100=total damage to plant; 0=no damage to plant), read-out: Percentage damage caused to weed species, post-emergence, ALOMY
Method in brief: (§2)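 Plants were sown in standard soil and grown 8 days in a glasshouse (24/16° C. day/night, 14 hours light, 65% humidity), then sprayed post-emergence at 1000 or 250 g/ha from acetone/water (50:50) with 0.5% Tween 20. Damage was scored visually after 13 days (0 = none, 100 = total).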

[8] = test system: Amaranthus retoflexus (AMARE); assay: as above; conditions: Amaranthus retroflexus, 312 h; Rate 1,000 g/ha; post-emergence spray; evaluated after 13 days (100=total damage to plant; 0=no damage to plant); read-out: Percentage damage caused to weed species, post-emergence, AMARE
Method in brief: as §2

[9] = test system: Solanum nigrum (SOLNI); assay: as above; conditions: 312 h, Rate 1,000 g/ha, post-emergence spray, evaluated after 13 days (100=total damage to plant; 0=no damage to plant), read-out: Percentage damage caused to weed species, post-emergence, SOLNI
Method in brief: as §2

[10] = test system: Echinochloa crus-galli (ECHCG); assay: as above; conditions: 312 h, Rate 1,000 g/ha, post-emergence spray, evaluated after 13 days (100=total damage to plant; 0=no damage to plant), read-out: Percentage damage caused to weed species, post-emergence, ECHCG
Method in brief: as §2

[11] = test system: Setaria faberi (SETFA); assay: as above; conditions: 312 h, Rate 1,000 g/ha, post-emergence spray, evaluated after 13 days (100=total damage to plant; 0=no damage to plant), read-out: Percentage damage caused to weed species, post-emergence, SETFA
Method in brief: as §2

[12] = test system: Ipomea hederaceae (IPOHE); assay: as above; conditions: Ipomoea hederacea, 312 h; Rate 1,000 g/ha; post-emergence spray; evaluated after 13 days (100=total damage to plant; 0=no damage to plant); read-out: Percentage damage caused to weed species, post-emergence, IPOHE
Method in brief: as §2

Row | SMILES | pest or weed control at 1000 g/ha [1] [%] | pest or weed control at 1000 g/ha [2] [%] | pest or weed control at 1000 g/ha [3] [%] | pest or weed control at 1000 g/ha [4] [%] | pest or weed control at 1000 g/ha [5] [%] | pest or weed control at 1000 g/ha [6] [%] | pest or weed control at 1000 g/ha [7] [%] | pest or weed control at 1000 g/ha [8] [%] | pest or weed control at 1000 g/ha [9] [%] | pest or weed control at 1000 g/ha [10] [%] | pest or weed control at 1000 g/ha [11] [%] | pest or weed control at 1000 g/ha [12] [%]
1 | CCN(Cc1ccccc1)c1nc(C2CC2)nc(C(=O)OC)c1Cl [Compound 6-60, 5-Chloro-2-cyclopropyl-4-([N-ethyl-N-phenylmethyl]-amino)-6-methoxycarbonyl-pyrimidine] | 20 | 100 | 100 | 20 | 30 | 20 | 30 | 100 | 90 | 70 | 90 | 100
2 | CCN(Cc1ccccc1F)c1nc(C2CC2)nc(C(=O)OC)c1Cl [Compound 6-64, 5-Chloro-2-cyclopropyl-4-[N-ethyl-N-(2-fluoro-phenyl)methyl-amino]-6-methoxycarbonyl-pyrimidine] | 10 | 60 | 20 | 20 | 30 | 50 | 30 | 100 | 100 | 70 | 90 | 100
3 | CCN(Cc1cccc(F)c1)c1nc(C2CC2)nc(C(=O)OC)c1Cl [Compound 6-65, 5-Chloro-2-cyclopropyl-4-[N-ethyl-N-(3-fluorophenylmethyl)-amino]-6-methoxycarbonyl-pyrimidine] | 20 | 70 | 40 | 20 | 30 | 70 | 10 | 100 | 90 | 70 | 90 | 100
4 | CCN(Cc1ccc(F)cc1)c1nc(C2CC2)nc(C(=O)OC)c1Cl [Compound 6-66, 5-Chloro-2-cyclopropyl-4-[N-ethyl-N-(4-fluorophenylmethyl)-amino]-6-methoxycarbonyl-pyrimidine] | 20 | 50 | 20 | 0 | 10 | 80 | 40 | 100 | 90 | 60 | 90 | 100
5 | CCN(Cc1c(F)cccc1Cl)c1nc(C2CC2)nc(C(=O)OC)c1Cl [Compound 6-102, 5-Chloro-4-[N-(2-chloro-6-fluorophenylmethyl)-N-ethyl-amino]-2-cyclopropyl-6-methoxycarbonyl-pyrimidine] | 0 | 100 | 60 | 0 | 0 | 60 | 20 | 100 | 90 | 70 | 80 | 90
6 | CCN(Cc1ccc(OC)c(OC)c1)c1nc(C2CC2)nc(C(=O)OC)c1Cl [Compound 6-112, 5-Chloro-2-cyclopropyl-4-[N-(3,4-dimethoxy-phenylmethyl)-N-ethyl-amino]-6-methoxycarbonyl-pyrimidine] | 10 | 60 | 10 | 10 | 0 | 60 | 30 | 100 | 80 | 70 | 80 | 80
7 | CCN(Cc1ccco1)c1nc(C2CC2)nc(C(=O)OC)c1Cl [Compound 6-125, 5-Chloro-2-cyclopropyl-4-(N-ethyl-N-furan-2-ylmethyl-amino)-6-methoxycarbonyl-pyrimidine] | 50 | 90 | 80 | 40 | 30 | 100 | 40 | 100 | 90 | 60 | 90 | 100
8 | CCN(Cc1ccc(C)o1)c1nc(C2CC2)nc(C(=O)OC)c1Cl [Compound 6-135, 5-Chloro-2-cyclopropyl-4-[N-ethyl-N-(5-methylfuran-2-ylmethyl)-amino]-6-methoxycarbonyl-pyrimidine] | 40 | 100 | 80 | 60 | 40 | 100 | 30 | 100 | 90 | 60 | 90 | 90
9 | CCN(Cc1cccs1)c1nc(C2CC2)nc(C(=O)OC)c1Cl [Compound 6-140, 5-Chloro-2-cyclopropyl-4-(N-ethyl-N-thiophen-2-ylmethyl-amino)6-methoxycarbonyl-pyrimidine] | 10 | 80 | 30 | 20 | 0 | 80 | 40 | 100 | 80 | 40 | 70 | 100
10 | CCN(Cc1ccc(Br)s1)c1nc(C2CC2)nc(C(=O)OC)c1Cl [Compound 6-142, 4-[N-(5-bromothiophen-2-ylmethyl)-N-ethyl-amino]-5-chloro-2-cyclopropyl-6-methoxycarbonyl-pyrimidine] | 0 | 50 | 10 | 0 | 10 | 60 | 30 | 100 | 90 | 60 | 90 | 100
